{"source": "patent US20090008238A1", "about": "“TRANSPORTABLE GAS STERILIZATION UNIT, DISPOSABLE GAS GENERATOR, LIGHT ACTIVATED ANTI-INFECTIVE COATING AND METHOD OF DISINFECTION AND STERILIZATION USING CHLORINE DIOXIDE” (THE ARIZONA BD OF REG ON BEHALF OF THE UNIV OF AZ, priority 2004, published 2009)", "key": {"[1]": {"system": "MRSA", "details": "2.5 minute exposure; cited from earlier work"}, "[2]": {"system": "E. coli", "details": "2.5 minute exposure; cited from earlier work"}, "[3]": {"system": "B. subtilis (spore)", "details": "2.5 minute exposure; cited from earlier work"}, "[4]": {"system": "A. niger", "details": "2.5 minute exposure; cited from earlier work"}, "[5]": {"system": "S. aureus", "details": "2.5 minute exposure; cited from earlier work"}, "[6]": {"system": "red blood cell", "details": "cited from earlier work"}, "[7]": {"system": "Bacillus subtilis var. niger spores", "test": "sporicidal effects of gas phase ClO2 on inoculated washers", "assay_type": "cell-based", "parameters": "key to Sterility (Day 14): Yes indicates no turbidity was observed, sample is sterile.; No indicates turbidity observed, sample is not sterile", "details": "4 hours; for Log Reduction: versus average of 2D and 2E", "experimental": "Sterile washers were inoculated with 1.4×10^7 Bacillus subtilis var. niger spores and allowed to dry overnight. Solutions were prepared in sterile jars to obtain different chlorine dioxide levels. Five washers were suspended in each jar and exposed to one chlorine dioxide concentration for 4 hours in the dark. Two washers from each chlorine dioxide level were enumerated for log reduction and three washers from each chlorine dioxide concentration were analyzed for sterility. Log reduction samples were analyzed by placing one washer into 10 ml sterile Difco DE Neutralizing Broth, shaking for approximately 30 seconds and spread plating, in duplicate, onto Difco Trypticase Soy agar plates incubated at 35° C. for 48 hours. Sterility was determined by placing one washer in 50 ml sterile Difco Trypticase Soy Broth incubated at 35° C. for 14 days and visually checked daily for turbidity. Appropriate positive and negative controls were run with test samples."}, "[8]": {"system": "Simian, Rotavirus SA11", "details": "pH 10; cited from earlier work"}, "[9]": {"details": "drank solution, up to a concentration of 24 ppm; cited from earlier work"}, "[10]": {"details": "relative to hypochlorite; cited from earlier work"}, "[11]": {"details": "low concentrations (20 mg/L) of gas; cited from earlier work"}, "[12]": {"details": "concentrations up to 100 ppm, in drinking, as well as via the skin route; cited from earlier work"}}, "note": "“And” between values parts separate entries of the source, which are not always exact repeats. Equal entries are not always repeated."}
{"compound": "N=C(NCCCCCCNC(=N)NC(=N)Nc1ccc(Cl)cc1)NC(=N)Nc1ccc(Cl)cc1.O=C(O)[C@H](O)[C@@H](O)[C@H](O)[C@H](O)CO.O=C(O)[C@H](O)[C@@H](O)[C@H](O)[C@H](O)CO", "note": "[CHG, Chlorhexidine digluconate]", "values": [{"measurement": "minimum bactericidal concentration, MRSA", "setting": "[1]", "result": "1,000 ppm"}, {"measurement": "minimum bactericidal concentration, E. coli", "setting": "[2]", "result": 100, "unit": "ppm"}, {"measurement": "minimum bactericidal concentration, B. subtilis (spore)", "setting": "[3]", "result": "1,000 ppm"}, {"measurement": "minimum bactericidal concentration, A. niger", "setting": "[4]", "result": ">10,000 ppm"}, {"measurement": "minimum bactericidal concentration, S. aureus", "setting": "[5]", "result": 10, "unit": "ppm"}]}
{"compound": "[O][Cl+][O-]", "note": "[Chlorine Dioxide]", "values": [{"measurement": "hematological changes", "setting": "[6]; rats fed up to 1000 mg/l chronically for 6 months", "result": "no significant hematological changes"}, {"measurement": "red blood cell counts, hematocrit and hemoglobin", "setting": "[6]; rats, after 9 months, all treatment groups", "result": "decreased"}, {"measurement": "CFU/ml Recovered Bacillus subtilis var. niger", "setting": "[7]; 50 ppm gas phase", "result": "50,000 CFU/ml and 73,000 CFU/ml"}, {"measurement": "Sterility (Day 14)", "setting": "[7]; 50 ppm gas phase", "result": "No"}, {"measurement": "Log Reduction", "setting": "[7]; 50 ppm gas phase", "result": "2.30 and 2.13"}, {"measurement": "Sterility (Day 14)", "setting": "[7]; 100 ppm gas phase", "result": "Yes"}, {"measurement": "Log Reduction", "setting": "[7]; 100 ppm gas phase", "result": "> 6"}, {"measurement": "CFU/ml Recovered Bacillus subtilis var. niger", "setting": "[7]; 200 ppm gas phase", "result": "<1", "unit": "CFU/ml"}, {"measurement": "Sterility (Day 14)", "setting": "[7]; 200 ppm gas phase", "result": "Yes"}, {"measurement": "Log Reduction", "setting": "[7]; 200 ppm gas phase", "result": ">6.99"}, {"measurement": "CFU/ml Recovered Bacillus subtilis var. niger", "setting": "[7]; 300 ppm gas phase", "result": "<1", "unit": "CFU/ml"}, {"measurement": "Sterility (Day 14)", "setting": "[7]; 300 ppm gas phase", "result": "Yes"}, {"measurement": "Log Reduction", "setting": "[7]; 300 ppm gas phase", "result": ">6.99"}, {"measurement": "CFU/ml Recovered Bacillus subtilis var. niger", "setting": "[7]; 400 ppm gas phase", "result": "<1", "unit": "CFU/ml"}, {"measurement": "Sterility (Day 14)", "setting": "[7]; 400 ppm gas phase", "result": "Yes"}, {"measurement": "Log Reduction", "setting": "[7]; 400 ppm gas phase", "result": ">6.99"}, {"measurement": "minimum bactericidal concentration, MRSA", "setting": "[1]", "result": 1, "unit": "ppm"}, {"measurement": "minimum bactericidal concentration, E. coli", "setting": "[2]", "result": 1, "unit": "ppm"}, {"measurement": "minimum bactericidal concentration, B. subtilis (spore)", "setting": "[3]", "result": 100, "unit": "ppm"}, {"measurement": "time to good antiviral activity", "setting": "[8]", "result": "less than 15 seconds"}, {"measurement": "adverse effects in human volunteers", "setting": "[9]", "result": "no adverse effects"}, {"measurement": "half-life for the elimination from the plasma", "setting": "[10]", "result": "less than half that of hypochlorite"}, {"measurement": "minimum bactericidal concentration, A. niger", "setting": "[4]", "result": 10, "unit": "ppm"}, {"measurement": "sterilant effectiveness", "setting": "[11]", "result": "effective sterilant"}, {"measurement": "fetal malformation or birth defects", "setting": "[12]", "result": "no evidence of fetal malformation or birth defects"}, {"measurement": "minimum bactericidal concentration, S. aureus", "setting": "[5]", "result": 1, "unit": "ppm"}]}
{"compound": "CCO", "note": "[EtOH, Absolute Ethyl Alcohol]", "values": [{"measurement": "minimum bactericidal concentration, MRSA", "setting": "[1]", "result": "500,000 ppm"}, {"measurement": "minimum bactericidal concentration, E. coli", "setting": "[2]", "result": "500,000 ppm"}, {"measurement": "minimum bactericidal concentration, B. subtilis (spore)", "setting": "[3]", "result": "500,000 ppm"}, {"measurement": "minimum bactericidal concentration, A. niger", "setting": "[4]", "result": "500,000 ppm"}, {"measurement": "minimum bactericidal concentration, S. aureus", "setting": "[5]", "result": "500,000 ppm"}]}
{"compound": "O=CCCCC=O", "note": "[GA, Glutaraldehyde]", "values": [{"measurement": "minimum bactericidal concentration, MRSA", "setting": "[1]", "result": "100,000 ppm"}, {"measurement": "minimum bactericidal concentration, E. coli", "setting": "[2]", "result": "100,000 ppm"}, {"measurement": "minimum bactericidal concentration, B. subtilis (spore)", "setting": "[3]", "result": "100,000 ppm"}, {"measurement": "minimum bactericidal concentration, A. niger", "setting": "[4]", "result": "100,000 ppm"}, {"measurement": "minimum bactericidal concentration, S. aureus", "setting": "[5]", "result": "100,000 ppm"}]}
{"compound": "Oc1ccccc1", "note": "[PN, Phenol]", "values": [{"measurement": "minimum bactericidal concentration, MRSA", "setting": "[1]", "result": ">10,000 ppm"}, {"measurement": "minimum bactericidal concentration, E. coli", "setting": "[2]", "result": "10,000 ppm"}, {"measurement": "minimum bactericidal concentration, B. subtilis (spore)", "setting": "[3]", "result": ">10,000 ppm"}, {"measurement": "minimum bactericidal concentration, A. niger", "setting": "[4]", "result": ">10,000 ppm"}, {"measurement": "minimum bactericidal concentration, S. aureus", "setting": "[5]", "result": ">10,000 ppm"}]}
{"compound": "OCl", "note": "[SH, Sodium hypochlorite]", "values": [{"measurement": "minimum bactericidal concentration, MRSA", "setting": "[1]", "result": 10, "unit": "ppm"}, {"measurement": "minimum bactericidal concentration, E. coli", "setting": "[2]", "result": 10, "unit": "ppm"}, {"measurement": "minimum bactericidal concentration, B. subtilis (spore)", "setting": "[3]", "result": ">1,000 ppm"}, {"measurement": "minimum bactericidal concentration, A. niger", "setting": "[4]", "result": "1,000 ppm"}, {"measurement": "minimum bactericidal concentration, S. aureus", "setting": "[5]", "result": 10, "unit": "ppm"}]}
{"compound": "[O-][Cl+]O", "note": "[chlorite ions]", "values": [{"measurement": "adverse effects in human volunteers", "setting": "[9]", "result": "no adverse effects"}, {"measurement": "half-life for the elimination from the plasma", "setting": "[10]", "result": "less than half that of hypochlorite"}]}
{"compound": "Benzalkonium chloride [BAC]", "values": [{"measurement": "minimum bactericidal concentration, MRSA", "setting": "[1]", "result": 100, "unit": "ppm"}, {"measurement": "minimum bactericidal concentration, E. coli", "setting": "[2]", "result": 100, "unit": "ppm"}, {"measurement": "minimum bactericidal concentration, B. subtilis (spore)", "setting": "[3]", "result": "1,000 ppm"}, {"measurement": "minimum bactericidal concentration, A. niger", "setting": "[4]", "result": "10,000 ppm"}, {"measurement": "minimum bactericidal concentration, S. aureus", "setting": "[5]", "result": 10, "unit": "ppm"}]}
{"compound": "Providone iodine [PVP-I]", "values": [{"measurement": "minimum bactericidal concentration, MRSA", "setting": "[1]", "result": 100, "unit": "ppm"}, {"measurement": "minimum bactericidal concentration, E. coli", "setting": "[2]", "result": 10, "unit": "ppm"}, {"measurement": "minimum bactericidal concentration, B. subtilis (spore)", "setting": "[3]", "result": ">1,000 ppm"}, {"measurement": "minimum bactericidal concentration, A. niger", "setting": "[4]", "result": "1,000 ppm"}, {"measurement": "minimum bactericidal concentration, S. aureus", "setting": "[5]", "result": 100, "unit": "ppm"}]}
